Results as given in patent US6737383B1, “Herbicidal oxadiazolidines” (priority 1999, dated 2004).

Columns and labels:
blackgrass = assay: Test B pre/postemergence blackgrass; type: in vivo, Alopecurus myosuroides
Outline: (§1)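 Response is a visual 0-to-10 score relative to untreated plants, where 0 means no effect and 10 means complete control, taken twelve to sixteen days after application. Treatments went onto soil at planting and onto foliage of 1- to 4-leaf plants, using a surfactant-containing non-phytotoxic solvent.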

cocklebur = assay: Test B pre/postemergence cocklebur; type: in vivo, Xanthium strumarium
Outline: as §1

corn = assay: Test B pre/postemergence corn; type: in vivo, Zea mays
Outline: as §1

crabgrass = assay: Test B pre/postemergence crabgrass; type: in vivo, Digitaria sanguinalis
Outline: as §1

giant foxtail = assay: Test B pre/postemergence giant foxtail; type: in vivo, Setaria faberii
Outline: as §1

morningglory = assay: Test B pre/postemergence morningglory; type: in vivo, Ipomoea hederacea
Outline: as §1

pigweed = assay: Test B pre/postemergence pigweed; type: in vivo, Amaranthus retroflexus
Outline: as §1

rape = assay: Test B pre/postemergence rape; type: in vivo, Brassica napus
Outline: as §1

soybean = assay: Test B pre/postemergence soybean; type: in vivo, Glycine max
Outline: as §1

sugar beet = assay: Test B pre/postemergence sugar beet; type: in vivo, Beta vulgaris
Outline: as §1

velvetleaf = assay: Test B pre/postemergence velvetleaf; type: in vivo, Abutilon theophrasti
Outline: as §1

wheat = assay: Test B pre/postemergence wheat; type: in vivo, Triticum aestivum
Outline: as §1

purple nutsedge = assay: Test B pre/postemergence purple nutsedge; type: in vivo, Cyperus rotundus
Outline: as §1

rice = assay: Test B flood test rice; type: in vivo, Oryza sativa
Outline: (§2)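 Each value is a visual injury score relative to controls, with 10 meaning complete control and 0 no effect. Evaluation took place twelve to sixteen days after the 2-leaf-stage plants were treated and kept in the greenhouse.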

smallflower flatsedge = assay: Test B flood test smallflower flatsedge; type: in vivo, Cyperus difformis
Outline: as §2

duck salad = assay: Test B flood test duck salad; type: in vivo, Heteranthera limosa
Outline: as §2

[1] = Postemergence, Rate 62 g/ha, scale of 0 to 10, 0 is no effect, 10 is complete control
[2] = Postemergence, Rate 125 g/ha, scale 0 to 10, 0 is no effect, 10 is complete control
[3] = Postemergence, Rate 500 g/ha, scale of 0 to 10 where 0 is no effect and 10 is complete control
[4] = Preemergence, Rate 62 g/ha, scale 0 to 10 (0 no effect, 10 complete control)
[5] = Preemergence, Rate 125 g/ha, scale 0 to 10, 0 is no effect, 10 is complete control
[6] = Preemergence, Rate 500 g/ha, scale of 0 to 10 where 0 is no effect and 10 is complete control
[7] = Rate 250 g/ha, Postemergence, scale of 0 to 10 where 0 is no effect and 10 is complete control
[8] = Rate 62 g/ha, flood test species, Pre-emergence, visual evaluation after twelve to sixteen days
[9] = Rate 125 g/ha, under heading Pre-emergence, flood test species, visual evaluation after twelve to sixteen days
[10] = Rate 250 g/ha, Pre-emergence (flood test species), scale 0 to 10, 0 is no effect, 10 is complete control
[11] = Rate 500 g/ha, Pre-emergence section of Table B, 0 to 10 scale (0 no effect, 10 complete control)

## CC(C)N(C(=O)n1oc(=O)n(CCC2OCCO2)c1=O)c1ccccc1 [Compound 560]
blackgrass; [1]
  Blackgrass plant response rating: 2
blackgrass; [2]
  Blackgrass plant response rating: 5
blackgrass; [3]
  Plant response rating, Blackgrass: 7
blackgrass; [4]
  Blackgrass plant response rating: 4
blackgrass; [5]
  Blackgrass plant response rating: 6
blackgrass; Preemergence, Rate 250 g/ha
  Blackgrass plant response rating (0 to 10 scale): 9
blackgrass; [6]
  Blackgrass plant response rating: 9
blackgrass; [7]
  Plant response rating, Blackgrass: 7
cocklebur; [1]
  Cocklebur plant response rating: 0
cocklebur; [2]
  Cocklebur plant response rating: 0
cocklebur; [3]
  Plant response rating, Cocklebur: 0
cocklebur; [4]
  Cocklebur plant response rating: 0
cocklebur; [5]
  Cocklebur plant response rating: 0
cocklebur; Preemergence, Rate 250 g/ha
  Cocklebur plant response rating (0 to 10 scale): 0
cocklebur; [6]
  Cocklebur plant response rating: 0
cocklebur; [7]
  Plant response rating, Cocklebur: 0
corn; [1]
  Corn plant response rating: 0
corn; [2]
  Corn plant response rating: 0
corn; [3]
  Plant response rating, Corn: 4
corn; [4]
  Corn plant response rating: 0
corn; [5]
  Corn plant response rating: 0
corn; Preemergence, Rate 250 g/ha
  Corn plant response rating (0 to 10 scale): 5
corn; [6]
  Corn plant response rating: 5
corn; [7]
  Plant response rating, Corn: 2
crabgrass; [1]
  Crabgrass plant response rating: 0
crabgrass; [2]
  Crabgrass plant response rating: 4
crabgrass; [3]
  Plant response rating, Crabgrass: 8
crabgrass; [4]
  Crabgrass plant response rating: 9
crabgrass; [5]
  Crabgrass plant response rating: 9
crabgrass; Preemergence, Rate 250 g/ha
  Crabgrass plant response rating (0 to 10 scale): 9
crabgrass; [6]
  Crabgrass plant response rating: 10
crabgrass; [7]
  Plant response rating, Crabgrass: 3
Giant foxtail; [1]
  Giant foxtail plant response rating: 2
Giant foxtail; [2]
  Giant foxtail plant response rating: 7
Giant foxtail; [3]
  Plant response rating, Giant foxtail: 8
Giant foxtail; [4]
  Giant foxtail plant response rating: 10
Giant foxtail; [5]
  Giant foxtail plant response rating: 10
Giant foxtail; Preemergence, Rate 250 g/ha
  Giant foxtail plant response rating (0 to 10 scale): 10
Giant foxtail; [6]
  Giant foxtail plant response rating: 10
Giant foxtail; [7]
  Plant response rating, Giant foxtail: 7
morningglory; [1]
  Morningglory plant response rating: 4
morningglory; [2]
  Morningglory plant response rating: 7
morningglory; [3]
  Plant response rating, Morningglory: 10
morningglory; [4]
  Morningglory plant response rating: 0
morningglory; [5]
  Morningglory plant response rating: 0
morningglory; Preemergence, Rate 250 g/ha
  Morningglory plant response rating (0 to 10 scale): 3
morningglory; [6]
  Morningglory plant response rating: 3
morningglory; [7]
  Plant response rating, Morningglory: 9
pigweed; [1]
  Redroot pigweed plant response rating: 2
pigweed; [3]
  Plant response rating, Redroot pigweed: 9
pigweed; [4]
  Redroot pigweed plant response rating: 3
pigweed; [5]
  Redroot pigweed plant response rating: 8
pigweed; Preemergence, Rate 250 g/ha
  Redroot pigweed plant response rating (0 to 10 scale): 9
pigweed; [6]
  Redroot pigweed plant response rating: 9
pigweed; [7]
  Plant response rating, Redroot pigweed: 8
rape; [1]
  Rape plant response rating: 0
rape; [3]
  Plant response rating, Rape: 7
rape; [4]
  Rape plant response rating: 0
rape; [5]
  Rape plant response rating: 3
rape; Preemergence, Rate 250 g/ha
  Rape plant response rating (0 to 10 scale): 7
rape; [6]
  Rape plant response rating: 8
rape; [7]
  Plant response rating, Rape: 4
soybean; [1]
  Soybean plant response rating: 2
soybean; [3]
  Plant response rating, Soybean: 3
soybean; [4]
  Soybean plant response rating: 0
soybean; [5]
  Soybean plant response rating: 0
soybean; Preemergence, Rate 250 g/ha
  Soybean plant response rating (0 to 10 scale): 1
soybean; [6]
  Soybean plant response rating: 3
soybean; [7]
  Plant response rating, Soybean: 2
Sugar beet; [1]
  Sugarbeets plant response rating: 0
Sugar beet; [3]
  Plant response rating, Sugarbeets: 6
Sugar beet; [4]
  Sugarbeets plant response rating: 0
Sugar beet; [5]
  Sugarbeets plant response rating: 0
Sugar beet; Preemergence, Rate 250 g/ha
  Sugarbeets plant response rating (0 to 10 scale): 3
Sugar beet; [6]
  Sugarbeets plant response rating: 7
Sugar beet; [7]
  Plant response rating, Sugarbeets: 0
velvetleaf; [1]
  Velvetleaf plant response rating: 0
velvetleaf; [3]
  Plant response rating, Velvetleaf: 0
velvetleaf; [4]
  Velvetleaf plant response rating: 0
velvetleaf; [5]
  Velvetleaf plant response rating: 2
velvetleaf; Preemergence, Rate 250 g/ha
  Velvetleaf plant response rating (0 to 10 scale): 2
velvetleaf; [6]
  Velvetleaf plant response rating: 5
velvetleaf; [7]
  Plant response rating, Velvetleaf: 0
wheat; [1]
  Wheat plant response rating: 0
wheat; [3]
  Plant response rating, Wheat: 6
wheat; [4]
  Wheat plant response rating: 3
wheat; [5]
  Wheat plant response rating: 5
wheat; Preemergence, Rate 250 g/ha
  Wheat plant response rating (0 to 10 scale): 6
wheat; [6]
  Wheat plant response rating: 8
wheat; [7]
  Plant response rating, Wheat: 3
Purple nutsedge; [1]
  Nutsedge plant response rating: 3
Purple nutsedge; [2]
  Nutsedge plant response rating: 3
Purple nutsedge; [3]
  Plant response rating, Nutsedge: 5
Purple nutsedge; [4]
  Nutsedge plant response rating: 0
Purple nutsedge; [5]
  Nutsedge plant response rating: 3
Purple nutsedge; Preemergence, Rate 250 g/ha
  Nutsedge plant response rating (0 to 10 scale): 7
Purple nutsedge; [6]
  Nutsedge plant response rating: 10
Purple nutsedge; [7]
  Plant response rating, Nutsedge: 3
rice; [8]
  Plant response rating, Rice (0 to 10 scale, 0 is no effect, 10 is complete control): 0
rice; [9]
  Rice plant response rating (0 to 10 scale, 0 is no effect, 10 is complete control): 0
rice; [10]
  Rice plant response rating: 0
rice; [11]
  Rice plant response rating: 0
Smallflower flatsedge; [8]
  Plant response rating, S. Flatsedge (0 to 10 scale, 0 is no effect, 10 is complete control): 0
Smallflower flatsedge; [9]
  S. Flatsedge plant response rating (0 to 10 scale, 0 is no effect, 10 is complete control): 0
Smallflower flatsedge; [10]
  S. Flatsedge plant response rating: 0
Smallflower flatsedge; [11]
  S. Flatsedge plant response rating: 0
Duck salad; [8]
  Plant response rating, Ducksalad (0 to 10 scale, 0 is no effect, 10 is complete control): 0
Duck salad; [9]
  Ducksalad plant response rating (0 to 10 scale, 0 is no effect, 10 is complete control): 0
Duck salad; [10]
  Ducksalad plant response rating: 0
Duck salad; [11]
  Ducksalad plant response rating: 0
